Patent publication US9056874B2, “Complement pathway modulators and uses thereof” (NOVARTIS AG, priority 2012, dated 2015)

Each molecule was assayed against factor B (Homo sapiens, UniProt P00751) (assay: factor B inhibition assay of Biological Example 1). Details: IC50 (nM), assay of Biological Example 1 (Table 1).
Type: biochemical
Set-up: CVF-Bb complex prepared from purified cobra venom factor (1 μM), recombinant human complement factor B; made in house; host or cells: drosophila cells (factor B); E. coli (factor D used to form the complex)

Sequence of factor B (P00751 260-764 limits assumed): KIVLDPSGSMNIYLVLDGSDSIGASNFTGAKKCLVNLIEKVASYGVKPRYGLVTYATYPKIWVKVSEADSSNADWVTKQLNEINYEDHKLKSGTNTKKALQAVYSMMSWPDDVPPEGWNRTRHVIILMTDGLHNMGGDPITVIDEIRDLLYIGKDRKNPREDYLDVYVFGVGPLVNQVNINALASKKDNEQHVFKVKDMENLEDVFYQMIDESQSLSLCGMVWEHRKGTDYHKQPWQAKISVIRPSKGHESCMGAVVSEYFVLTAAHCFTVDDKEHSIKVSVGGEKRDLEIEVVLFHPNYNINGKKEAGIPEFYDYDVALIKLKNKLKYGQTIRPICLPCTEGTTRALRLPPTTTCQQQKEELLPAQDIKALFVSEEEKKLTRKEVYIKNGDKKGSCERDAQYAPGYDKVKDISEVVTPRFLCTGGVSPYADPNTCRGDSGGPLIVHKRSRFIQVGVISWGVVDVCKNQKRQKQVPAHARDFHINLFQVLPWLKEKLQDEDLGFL
Sequence of factor B (Q91132 23-649 partner limits assumed): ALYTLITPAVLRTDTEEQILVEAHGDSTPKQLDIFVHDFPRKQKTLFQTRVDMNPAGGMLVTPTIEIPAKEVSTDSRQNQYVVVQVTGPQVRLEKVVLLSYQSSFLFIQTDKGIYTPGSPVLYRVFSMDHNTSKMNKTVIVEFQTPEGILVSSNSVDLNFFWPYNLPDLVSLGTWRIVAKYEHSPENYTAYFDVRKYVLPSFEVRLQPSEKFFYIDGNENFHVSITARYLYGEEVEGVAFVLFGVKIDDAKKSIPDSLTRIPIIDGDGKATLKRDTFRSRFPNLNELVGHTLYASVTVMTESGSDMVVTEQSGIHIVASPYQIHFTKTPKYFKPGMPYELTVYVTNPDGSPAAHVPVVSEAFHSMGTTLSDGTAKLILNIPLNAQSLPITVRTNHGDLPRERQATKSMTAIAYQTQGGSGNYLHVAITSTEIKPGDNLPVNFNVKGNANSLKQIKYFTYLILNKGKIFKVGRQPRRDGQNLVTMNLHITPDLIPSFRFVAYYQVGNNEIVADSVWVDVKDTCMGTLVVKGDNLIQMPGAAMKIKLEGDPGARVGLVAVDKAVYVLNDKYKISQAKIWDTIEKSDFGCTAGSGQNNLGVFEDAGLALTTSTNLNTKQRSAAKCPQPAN
Sequence of factor B (Q91132 733-984 partner limits assumed): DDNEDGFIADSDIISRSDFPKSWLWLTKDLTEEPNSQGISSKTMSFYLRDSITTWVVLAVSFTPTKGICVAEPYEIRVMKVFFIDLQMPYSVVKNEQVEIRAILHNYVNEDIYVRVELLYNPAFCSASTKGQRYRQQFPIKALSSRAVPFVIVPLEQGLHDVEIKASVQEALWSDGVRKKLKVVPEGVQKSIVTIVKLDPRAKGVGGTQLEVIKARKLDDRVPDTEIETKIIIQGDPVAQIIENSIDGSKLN
Sequence of factor B (Q91132 1264-1642 partner limits assumed): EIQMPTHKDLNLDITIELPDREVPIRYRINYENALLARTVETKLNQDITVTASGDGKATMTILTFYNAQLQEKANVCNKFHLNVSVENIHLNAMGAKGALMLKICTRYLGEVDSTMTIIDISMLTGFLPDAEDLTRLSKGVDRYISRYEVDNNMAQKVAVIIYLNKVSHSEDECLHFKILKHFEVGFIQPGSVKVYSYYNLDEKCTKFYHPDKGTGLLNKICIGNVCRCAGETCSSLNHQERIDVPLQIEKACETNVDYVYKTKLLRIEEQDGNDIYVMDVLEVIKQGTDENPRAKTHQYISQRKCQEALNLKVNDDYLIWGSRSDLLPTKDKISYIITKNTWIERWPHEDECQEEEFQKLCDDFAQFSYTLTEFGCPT

| Molecule | IC50 [nM] |
| --- | --- |
| Cc1cc(OCC(N)=O)c(C(C)(O)c2nc3cc(C#N)ccc3[nH]2)c2cc[nH]c12 (racemic) [Example 31-C, (±)-2-((4-(1-(5-Cyano-1H-benzo[d]imidazol-2-yl)-1-hydroxyethyl)-7-methyl-1H-indol-5-yl)oxy)acetamide] | 430 |
| CNC(c1nc2cc(C#N)ccc2[nH]1)(c1c(OC)cc(C)c2[nH]ccc12)C(F)(F)F (single isomer, unassigned; (-)) [38-B b) (−), (−)-2-(2,2,2-trifluoro-1-(5-methoxy-7-methyl-1H-indol-4-yl)-1-(methylamino)ethyl)-1H-benzo[d]imidazole-5-carbonitrile] | 8 |
| COc1cc(C)c2[nH]ccc2c1C(C)(N)c1nc2cc(C#N)ccc2o1 (single isomer, unassigned; (-)) [131-B b) (−), (−)-2-(1-amino-1-(5-methoxy-7-methyl-1H-indol-4-yl)ethyl)benzo[d]oxazole-5-carbonitrile] | 52 |
| COc1cc(C)c2[nH]ccc2c1C(OC)(c1nc2cc(C#N)ccc2[nH]1)C(F)(F)F (single isomer, unassigned; (-)) [34-B b) (−), (−)-2-(2,2,2-trifluoro-1-methoxy-1-(5-methoxy-7-methyl-1H-indol-4-yl)ethyl)-1H-benzo[d]imidazole-5-carbonitrile] | 10 |
| COc1cc(C)c2[nH]ccc2c1C(O)c1nc2cc(C#N)ccc2o1 (single isomer, unassigned; (-)) [125-B b) (−), (−)-2-(hydroxy(5-methoxy-7-methyl-1H-indol-4-yl)methyl)benzo[d]oxazole-5-carbonitrile] | 3 |
| Cc1cc(C)c2[nH]ccc2c1C(C)c1nc2cc(C#N)ccc2[nH]1 (racemic) [Example 75-D, (±)-2-(1-(5,7-Dimethyl-1H-indol-4-yl)ethyl)-1H-benzo[d]imidazole-5-carbonitrile] | 470 |
| COc1cc(C)c2[nH]ccc2c1C(C)(OC)c1nc2cc(C#N)ccc2o1 (racemic) [127-B a), (±)-2-(1-methoxy-1-(5-methoxy-7-methyl-1H-indol-4-yl)ethyl)benzo[d]oxazole-5-carbonitrile] | 330 |
| COC(c1nc2cc(C#N)ccc2[nH]1)c1c(C)cc(C)c2[nH]ccc12 (racemic) [Example 68-B, (±)-2-((5,7-Dimethyl-1H-indol-4-yl)(methoxy)methyl)-1H-benzo[d]imidazole-5-carbonitrile] | 200 |
| CCc1cc(C)c2[nH]ccc2c1C(N)(c1nc2cc(C#N)ccc2[nH]1)C(F)(F)F (single isomer, unassigned; (+)) [107-C b) (+)] | 400 |
| CCc1cc(C)c2[nH]cc(C(O)C(F)(F)F)c2c1Cc1nc2cc(C#N)ccc2[nH]1 (racemic) [Example 92-B, (±)-2-((5-Ethyl-7-methyl-3-(2,2,2-trifluoro-1-hydroxyethyl)-1H-indol-4-yl)methyl)-1H-benzo[d]imidazole-5-carbonitrile] | 9750 |
| [2H]C([2H])([2H])C(OC)(c1nc2cc(C#N)ccc2[nH]1)c1c(OC)cc(C)c2[nH]ccc12 (single isomer, unassigned; (+)) [27-E b) (+), (+)-2-((^2H3)methyl(methoxy)(5-methoxy-7-methyl-1H-indol-4-yl)methyl)-1H-benzo[d]imidazole-5-carbonitrile] | 90 |
| COc1cc(C)c2[nH]ccc2c1C(C)(N)c1nc2cc(C#N)ccc2o1 (single isomer, unassigned; (+)) [131-B b) (+), (+)-2-(1-amino-1-(5-methoxy-7-methyl-1H-indol-4-yl)ethyl)benzo[d]oxazole-5-carbonitrile] | 140 |
| Cc1cc(OC(C)C)c(C(N)c2nc3cc(C#N)ccc3[nH]2)c2cc[nH]c12 (racemic) [Example 40, (±)-2-(Amino(5-isopropoxy-7-methyl-1H-indol-4-yl)methyl)-1H-benzo[d]imidazole-5-carbonitrile] | 50 |
| Cc1cc(C)c2[nH]ccc2c1C(O)c1nc2c(C)c(C#N)ccc2[nH]1 (single isomer, unassigned; (-)) [67-G b) (−), (−)-2-((5,7-dimethyl-1H-indol-4-yl)(hydroxy)methyl)-4-methyl-1H-benzo[d]imidazole-5-carbonitrile] | 570 |
| Cc1cc(S(C)(=O)=O)c(C(C)(O)c2nc3cc(C#N)ccc3[nH]2)c2cc[nH]c12 (single isomer, unassigned) [11-C b) (tr = 3 min), (+) or (−)-2-(1-hydroxy-1-(7-methyl-5-(methylsulfonyl)-1H-indol-4-yl)ethyl)-1H-benzo[d]imidazole-5-carbonitrile] | 90 |
| Cc1cc(C2CC2)c(C(N)(c2nc3cc(C#N)ccc3[nH]2)C(F)(F)F)c2cc[nH]c12 (single isomer, unassigned; (-)) [107-D b) (−), (−)-2-(1-amino-1-(5-cyclopropyl-7-methyl-1H-indol-4-yl)-2,2,2-trifluoroethyl)-1H-benzo[d]imidazole-5-carbonitrile] | 8 |
| Cc1cc(S(C)(=O)=O)c(C(N)(c2nc3cc(C#N)ccc3[nH]2)C(F)(F)F)c2cc[nH]c12 (single isomer, unassigned; (+)) [17-B b) (+), (+)-2-(1-amino-2,2,2-trifluoro-1-(7-methyl-5-(methylsulfonyl)-1H-indol-4-yl)ethyl)-1H-benzo[d]imidazole-5-carbonitrile] | 6860 |
| Cc1cc(C)c2[nH]ccc2c1Cc1nc2cc(C#N)cc(F)c2[nH]1 [Example 62-B, 2-((5,7-Dimethyl-1H-indol-4-yl)methyl)-7-fluoro-1H-benzo[d]imidazole-5-carbonitrile] | 7610 |
| Cc1cc(C)c2[nH]ccc2c1Cc1nc2cc(C#N)ccc2[nH]1 [Example 58-C, 2-((5,7-Dimethyl-1H-indol-4-yl)methyl)-1H-benzo[d]imidazole-5-carbonitrile] | 200 |
| Cc1cc(CO)c(C(O)c2nc3cc(C#N)ccc3[nH]2)c2cc[nH]c12 (single isomer, unassigned; (+)) [65-D b) (+), (+)-2-(hydroxy(5-(hydroxymethyl)-7-methyl-1H-indol-4-yl)methyl)-1H-benzo[d]imidazole-5-carbonitrile] | 6200 |
| Cc1cc(Cl)c(C(O)c2nc3cc(C#N)ccc3[nH]2)c2cc[nH]c12 (single isomer, unassigned; (+)) [67-E b) (+), (+)-2-((5-chloro-7-methyl-1H-indol-4-yl)(hydroxy)methyl)-1H-benzo[d]imidazole-5-carbonitrile] | 2080 |
| Cc1cc(Br)c(C(O)c2nc3cc(C#N)ccc3[nH]2)c2cc[nH]c12 (centres unmarked) [Example 67-F] | 2000 |
| COc1cc(C)c2[nH]ccc2c1C(O)(c1nc2cc(C#N)ccc2o1)C(F)(F)F (single isomer, unassigned; (-)) [128-B b) (−), (−)-2-(2,2,2-trifluoro-1-hydroxy-1-(5-methoxy-7-methyl-1H-indol-4-yl)ethyl)benzo[d]oxazole-5-carbonitrile] | 3 |
| Cc1cc(S(C)(=O)=O)c(C(C)(N)c2nc3cc(C#N)ccc3[nH]2)c2cc[nH]c12 (single isomer, unassigned; (+)) [13-E b) (+), (+)-2-(1-Amino-1-(7-methyl-5-(methylsulfonyl)-1H-indol-4-yl)ethyl)-1H-benzo[d]imidazole-5-carbonitrile] | 250 |
| CCc1cc(C)c2[nH]ccc2c1C(C)(N)c1nc2cc(C#N)ccc2[nH]1 (single isomer, unassigned; (-)) [102-C b) (−), (−)-2-(1-amino-1-(5-ethyl-7-methyl-1H-indol-4-yl)ethyl)-1H-benzo[d]imidazole-5-carbonitrile] | 10 |
| CCc1cc(C)c2[nH]ccc2c1C(NC)(c1nc2cc(C#N)ccc2[nH]1)C(F)(F)F (single isomer, unassigned; (+)) [107-B b) (+), (+)-2-(1-(5-ethyl-7-methyl-1H-indol-4-yl)-2,2,2-trifluoro-1-(methylamino)ethyl)-1H-benzo[d]imidazole-5-carbonitrile] | 140 |
| Cc1cc(C(C)C)c(C(O)(c2nc3cc(C#N)ccc3[nH]2)C(F)(F)F)c2cc[nH]c12 (single isomer, unassigned; (+)) [80-F b) (+), (+)-2-(2,2,2-trifluoro-1-hydroxy-1-(5-isopropyl-7-methyl-1H-indol-4-yl)ethyl)-1H-benzo[d]imidazole-5-carbonitrile] | 690 |
| Cc1cc(S(C)(=O)=O)c(C(C)(O)c2nc3cc(C#N)ccc3[nH]2)c2cc[nH]c12 (single isomer, unassigned) [11-C b) (tr = 4.2 min), (−) or (+)-2-(1-hydroxy-1-(7-methyl-5-(methylsulfonyl)-1H-indol-4-yl)ethyl)-1H-benzo[d]imidazole-5-carbonitrile] | 1020 |
| Cc1cc(CO)c(C(O)(c2nc3cc(C#N)ccc3[nH]2)C(F)(F)F)c2cc[nH]c12 (racemic) [Example 81-E, (±)-2-(2,2,2-Trifluoro-1-hydroxy-1-(5-(hydroxymethyl)-7-methyl-1H-indol-4-yl)ethyl)-1H-benzo[d]imidazole-5-carbonitrile] | 1640 |
| CCOc1cc(C)c2[nH]ccc2c1C(CNC)c1nc2cc(C#N)ccc2[nH]1 (racemic) [Example 45, (±)-2-(1-(5-ethoxy-7-methyl-1H-indol-4-yl)-2-(methylamino)ethyl)-1H-benzo[d]imidazole-5-carbonitrile] | 1040 |

Same assay, conditions: assay of Biological Example 1 (Table 1)

| Molecule | IC50 [nM] |
| --- | --- |
| Cc1cc(OC(C)C)c(C(C)(O)c2nc3cc(C#N)ccc3[nH]2)c2cc[nH]c12 (single isomer, unassigned; (+)) [26-E b) (+), (+)-2-(1-hydroxy-1-(5-isopropoxy-7-methyl-1H-indol-4-yl)ethyl)-1H-benzo[d]imidazole-5-carbonitrile] | 170 |

Same assay, conditions: assay of Biological Example 1 (Table 1), read-out: IC50

| Molecule | IC50 [nM] |
| --- | --- |
| (−) or (+)-2-(1-methoxy-1-(7-methyl-5-(methylsulfonyl)-1H-indol-4-yl)ethyl)-1H-benzo[d]imidazole-5-carbonitrile [12-B b) (tr = 6.1 min)] | 600 |
